Test results taken from patent US20070254903A1, “Novel Spiroindoline or Spiroisoquinoline Compounds, Methods of Use and Compositions Thereof” (ARENA PHARMACEUTICALS, INC., priority 2003, published 2007).

Molecular target: T1, human Mas receptor (Homo sapiens, UniProt P04201)
T1 construct: expressed in transfected cells
T1 sequence (P04201 1-325): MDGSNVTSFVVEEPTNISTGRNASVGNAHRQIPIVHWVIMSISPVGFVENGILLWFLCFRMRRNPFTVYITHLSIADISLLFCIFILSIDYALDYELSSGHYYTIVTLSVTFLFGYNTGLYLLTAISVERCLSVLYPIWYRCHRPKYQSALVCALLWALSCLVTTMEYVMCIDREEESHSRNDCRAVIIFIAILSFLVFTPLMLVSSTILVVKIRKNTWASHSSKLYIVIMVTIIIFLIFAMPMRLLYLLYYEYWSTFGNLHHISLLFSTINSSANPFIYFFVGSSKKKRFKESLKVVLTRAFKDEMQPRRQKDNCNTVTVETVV
Assay: Mas receptor IP3 assay (inverse agonist assay)
Assay type: cell-based
Conditions: HEK293 cells over-expressing human Mas receptor; average from several experiments
Description: The Mas receptor IP3 assay was performed using a mammalian cell line (HEK293) which was transfected with a plasmid containing the human Mas receptor and selected for stable expression of the receptor. For the inverse agonist assay, higher levels of Mas receptor constitutive activity were desired. To achieve this, Mas receptor expression levels were increased by transiently transfecting the same Mas receptor stable cell line with additional human Mas receptor plasmid DNA following standard procedures. These cells were used in the Mas receptor IP3 assay approximately 24 hours post-transfection.
Cells were split into 96-well plates (50,000 cells/well) and allowed to attach for a period of 6 hours. The growth medium was then replaced with medium supplemented with 4 μCi/ml [^3H]myo-inositol (100 μl; Perkin Elmer Life Sciences) and the cells were allowed to incubate for approximately 20 hours. Test compounds were serially diluted in inositol-free media containing 10 mM LiCl. The media in the plates was removed by aspiration, replaced with these test compound solutions and incubated at 37° C. for 1 hour. Following this incubation, the media was removed by aspiration and replaced with buffer containing 0.1M formic acid. The plates were then frozen overnight at −80° C. to achieve complete cell lysis.
The following day, the assay plates were thawed at room temperature. The thawed contents were then transfered to 96-well filter plates (Millipore, Multiscreen) pre-loaded with resin (Biorad, AG1-X8 100-200 mesh, formate form). The plate was filtered using a vacuum manifold and the resin was washed multiple times with water. An elution buffer was then applied (200 μl, 0.2M Ammonium formate/0.1M formic acid) and the resulting eluent was collected, under vacuum, in a 96-well collection plate. Aliquots of the eluent (80 μl) were transferred to filter plates (Whatman, Unifilter GF/C) and dried in a 45° C. oven overnight. Dried plates were counted on a scintillation counter following the addition of an appropriate scintillant (Perkin Elmer Life Sciences, Optiphase Supermix or Hi-Safe 3).

SMILES | IC50 [nM]
C=CCN1CCC2(CC1)CN(C(=O)c1ccc3c(c1)OCO3)c1ccc(F)cc12 [Compound 89, 1′-(allyl)-1,2-dihydro-5-fluoro-1-(benzo[1,3]dioxole-5-carbonyl)-spiro[3H-indole-3,4′-piperidine]] | 989
C=CCN1CCC2(CC1)CN(C(=O)c1cc(Cl)sc1Cl)c1ccc(F)cc12 [Compound 211, 1′-(allyl)-1,2-dihydro-5-fluoro-1-(2,5-dichloro-thiophene-3-carbonyl)-spiro[3H-indole-3,4′-piperidine]] | 855
